Source: US8436011B2, “Pyridinopyridinone derivatives, preparation thereof and therapeutic use thereof” (Sanofi, priority 2008, dated 2013)
Where “and” joins values, the source holds several entries; their conditions need not be identical. Equal values may be shown once. Where a name gives a salt, the structure may show the parent alone.

melting point | SMILES
299 °C | CCn1c(N)c(C(=O)NC)c(=O)c2ccc(-c3ccc(CC(=O)Nc4ccccc4)cc3)nc21
300 °C | CCn1c(N)c(C(=O)NC)c(=O)c2ccc(-c3ccc(CC(=O)NC4CCCC4)cc3)nc21
138 °C | CCN1CCCC1CN(C)C(=O)Cc1ccc(-c2ccc3c(=O)c(C(=O)NC)c(N)n(CC)c3n2)cc1 (stereo not shown)
270 °C | CCn1c(N)c(C(=O)NC)c(=O)c2ccc(-c3ccc(CC(=O)NCCc4ccccc4)cc3)nc21
260 °C | CCN1CCCC1CNC(=O)Cc1ccc(-c2ccc3c(=O)c(C(=O)NC)c(N)n(CC4CC4)c3n2)cc1 (stereo not shown)
250 °C | CCn1c(N)c(C(=O)NC)c(=O)c2ccc(-c3ccc(CC(=O)Nc4ccncc4)cc3)nc21 (as salt: HCl)
248 °C | CCn1c(N)c(C(=O)NC)c(=O)c2ccc(-c3ccc(CC(=O)NCCc4ccccn4)cc3)nc21 (as salt: HCl)
230 °C | CNC(=O)c1c(N)n(CCCOC)c2nc(-c3ccc(CC(=O)Nc4ccccn4)cc3)ccc2c1=O (as salt: HCl)
270 °C | CCn1c(N)c(C(=O)NC)c(=O)c2ccc(-c3ccc(CC(=O)Nc4cccnc4)cc3)nc21 (as salt: HCl) [compound 3, 2-amino-1-ethyl-N-methyl-4-oxo-7-{4-[2-oxo-2-(pyrid-3-ylamino)ethyl]-phenyl}-1,4-dihydro-1,8-naphthyridine-3-carboxamide]
258 °C | CCn1c(N)c(C(=O)NC)c(=O)c2ccc(-c3ccc(CC(=O)Nc4ccccn4)cc3)nc21 (as salt: HCl) [compound 4, 2-amino-1-ethyl-N-methyl-4-oxo-7-{4-[2-oxo-2-(pyrid-2-ylamino)ethyl]-phenyl}-1,4-dihydro-1,8-naphthyridine-3-carboxamide]
230 °C | CCn1c(N)c(C(=O)NC)c(=O)c2ccc(-c3ccc(CC(=O)NCc4ccncc4)cc3)nc21 (as salt: HCl) [compound 7, 2-amino-1-ethyl-N-methyl-4-oxo-7-(4-{2-oxo-2-[(pyrid-4-ylmethyl)amino]-ethyl}phenyl)-1,4-dihydro-1,8-naphthyridine-3-carboxamide]
268 °C | CCn1c(N)c(C(=O)NC)c(=O)c2ccc(-c3ccc(CC(=O)NCc4ccccn4)cc3)nc21 (as salt: HCl) [compound 8, 2-amino-1-ethyl-N-methyl-4-oxo-7-(4-{2-oxo-2-[(pyrid-2-ylmethyl)amino]-ethyl}phenyl)-1,4-dihydro-1,8-naphthyridine-3-carboxamide]
220 to 222 °C | CCn1c(N)c(C(=O)NC)c(=O)c2ccc(-c3ccc(CC(=O)NCCN4CCOCC4)cc3)nc21 (as salt: HCl) [compound 18, 2-amino-1-ethyl-N-methyl-7-(4-{2-[(2-morpholin-4-ylethyl)amino]-2-oxoethyl}phenyl)-4-oxo-1,4-dihydro-1,8-naphthyridine-3-carboxamide]
188 °C | CCn1c(N)c(C(=O)NC)c(=O)c2ccc(-c3ccc(C(C)C(=O)Nc4ccccn4)cc3)nc21 (stereo not shown) (as salt: HCl) [compound 20, 2-amino-1-ethyl-N-methyl-7-{4-[1-methyl-2-oxo-2-(pyrid-2-ylamino)ethyl]-phenyl}-4-oxo-1,4-dihydro-1,8-naphthyridine-3-carboxamide]
188 to 190 °C and 190 °C | CCN1CCOCC1CNC(=O)Cc1ccc(-c2ccc3c(=O)c(C(=O)NC)c(N)n(CC)c3n2)cc1 (stereo not shown) (as salt: HCl) [compound 22, 2-amino-1-ethyl-7-[4-(2-{[(4-ethylmorpholin-3-yl)methyl]amino}-2-oxoethyl)phenyl]-N-methyl-4-oxo-1,4-dihydro-1,8-naphthyridine-3-carboxamide]
199 °C | CCN1CCOCC1CNC(=O)Cc1ccc(-c2ccc3c(=O)c(C(=O)NC)c(N)n(CC)c3n2)cn1 (stereo not shown) (as salt: HCl) [compound 23, 2-amino-1-ethyl-7-[6-(2-{[(4-ethylmorpholin-3-yl)methyl]amino}-2-oxoethyl)pyrid-3-yl]-N-methyl-4-oxo-1,4-dihydro-1,8-naphthyridine-3-carboxamide]
266 °C | CCN1CC(F)(F)C[C@H]1CNC(=O)Cc1ccc(-c2ccc3c(=O)c(C(=O)NC)c(N)n(CC)c3n2)cc1 (as salt: HCl) [compound 24, 2-amino-1-ethyl-7-{4-[2-({[(2S)-1-ethyl-4,4-difluoropyrrolidin-2-yl]methyl}-amino)-2-oxoethyl]phenyl}-N-methyl-4-oxo-1,4-dihydro-1,8-naphthyridine-3-carboxamide]
190 °C | CCN1CCOCC1CNC(=O)C(C)c1ccc(-c2ccc3c(=O)c(C(=O)NC)c(N)n(CC)c3n2)cc1 (stereo not shown) (as salt: HCl) [compound 25, 2-amino-1-ethyl-7-[4-(2-{[(4-ethylmorpholin-3-yl)methyl]amino}-1-methyl-2-oxoethyl)phenyl]-N-methyl-4-oxo-1,4-dihydro-1,8-naphthyridine-3-carboxamide]
170 °C | CCN1C[C@H](F)C[C@H]1CNC(=O)Cc1ccc(-c2ccc3c(=O)c(C(=O)NC)c(N)n(CC)c3n2)cc1 (as salt: HCl) [compound 26, 2-amino-1-ethyl-7-{4-[2-({[(2S,4R)-1-ethyl-4-fluoropyrrolidin-2-yl]methyl}-amino)-2-oxoethyl]phenyl}-N-methyl-4-oxo-1,4-dihydro-1,8-naphthyridine-3-carboxamide]
194 °C | CCn1c(N)c(C(=O)NC)c(=O)c2ccc(-c3ccc(CC(=O)NC[C@H]4CCCN4CCF)cn3)nc21 (as salt: HCl) [compound 29, 2-amino-1-ethyl-7-{5-[2-({[(2R)-1-(2-fluoroethyl)pyrrolidin-2-yl]methyl}-amino)-2-oxoethyl]pyrid-2-yl}-N-methyl-4-oxo-1,4-dihydro-1,8-naphthyridine-3-carboxamide]
214 to 228 °C | CCn1c(N)c(C(=O)NC)c(=O)c2ccc(-c3ccc(CC(=O)NC[C@H]4CCCN4CC(F)F)cc3)nc21 (as salt: HCl) [compound 31, 2-amino-7-{4-[2-({[(2R)-1-(2,2-difluoroethyl)pyrrolidin-2-yl]methyl}amino)-2-oxoethyl]phenyl}-1-ethyl-N-methyl-4-oxo-1,4-dihydro-1,8-naphthyridine-3-carboxamide]
192 °C | CCn1c(N)c(C(=O)NC)c(=O)c2ccc(-c3ccc(CC(=O)NCC4COCCN4C(C)C)cc3)nc21 (stereo not shown) (as salt: HCl) [compound 32, 2-amino-1-ethyl-N-methyl-7-{4-[2-({[4-(1-methylethyl)morpholin-3-yl]-methyl}amino)-2-oxoethyl]phenyl}-4-oxo-1,4-dihydro-1,8-naphthyridine-3-carboxamide]
250 °C | CCn1c(N)c(C(=O)NC)c(=O)c2ccc(-c3ccc(CC(=O)NCC4COCCN4C4CC4)cc3)nc21 (stereo not shown) (as salt: HCl) [compound 33, 2-amino-7-[4-(2-{[(4-cyclopropylmorpholin-3-yl)methyl]amino}-2-oxoethyl)phenyl]-1-ethyl-N-methyl-4-oxo-1,4-dihydro-1,8-naphthyridine-3-carboxamide]
260 °C | CCn1c(N)c(C(=O)NC)c(=O)c2ccc(-c3ccc(CC(=O)NC[C@H]4CCCN4CC(F)F)cn3)nc21 (as salt: HCl) [compound 34, 2-amino-7-{5-[2-({[(2R)-1-(2,2-difluoroethyl)pyrrolidin-2-yl]methyl}amino)-2-oxoethyl]pyrid-2-yl}-1-ethyl-N-methyl-4-oxo-1,4-dihydro-1,8-naphthyridine-3-carboxamide]
270 °C | CCn1c(N)c(C(=O)NC)c(=O)c2ccc(-c3ccc(CC(=O)NCc4cncn4C)cc3)nc21 (as salt: HCl) [compound 36, 2-amino-1-ethyl-N-methyl-7-[4-(2-{[(1-methyl-1H-imidazol-5-yl)methyl]amino}-2-oxoethyl)phenyl]-4-oxo-1,4-dihydro-1,8-naphthyridine-3-carboxamide]
222 °C | CCn1c(N)c(C(=O)NC)c(=O)c2ccc(-c3ccc(CC(=O)NCCc4cccnc4)cc3)nc21 (as salt: HCl) [compound 37, 2-amino-1-ethyl-N-methyl-4-oxo-7-(4-{2-oxo-2-[(2-pyrid-3-ylethyl)amino]-ethyl}phenyl)-1,4-dihydro-1,8-naphthyridine-3-carboxamide]
196 °C | CCn1c(N)c(C(=O)NC)c(=O)c2ccc(-c3ccc(CC(=O)NCCCN4CCOCC4)cc3)nc21 (as salt: HCl) [compound 38, 2-amino-1-ethyl-N-methyl-7-(4-{2-[(3-morpholin-4-ylpropyl)amino]-2-oxoethyl}phenyl)-4-oxo-1,4-dihydro-1,8-naphthyridine-3-carboxamide]
228 °C | CCN1CCCC1CNC(=O)Cc1csc(-c2ccc3c(=O)c(C(=O)NC)c(N)n(CC)c3n2)n1 (stereo not shown) (as salt: HCl) [compound 43, 2-amino-1-ethyl-7-[4-(2-{[(1-ethylpyrrolidin-2-yl)methyl]amino}-2-oxoethyl)-1,3-thiazol-2-yl]-N-methyl-4-oxo-1,4-dihydro-1,8-naphthyridine-3-carboxamide]
228 °C | CCN1CCCC1CNC(=O)Cc1ccc(-c2ccc3c(=O)c(C(=O)NC)c(N)n(CC)c3n2)cc1Cl (stereo not shown) (as salt: HCl) [compound 57, 2-amino-7-[3-chloro-4-(2-{[(1-ethylpyrrolidin-2-yl)methyl]amino}-2-oxoethyl)phenyl]-1-ethyl-N-methyl-4-oxo-1,4-dihydro-1,8-naphthyridine-3-carboxamide]
213 °C | CCN1CCCC1CNC(=O)Cc1cccc(-c2ccc3c(=O)c(C(=O)NC)c(N)n(CC)c3n2)c1 (stereo not shown) (as salt: HCl) [compound 62, 2-amino-1-ethyl-7-[3-(2-{[(1-ethylpyrrolidin-2-yl)methyl]amino}-2-oxoethyl)phenyl]-N-methyl-4-oxo-1,4-dihydro-1,8-naphthyridine-3-carboxamide]

SMILES | melting point
CCn1c(N)c(C(=O)NC)c(=O)c2ccc(-c3ccc(CC(=O)Nc4ccccn4)cn3)nc21 (as salt: HCl) [compound 19, 2-amino-1-ethyl-N-methyl-4-oxo-7-{5-[2-oxo-2-(pyrid-2-ylamino)-ethyl]pyrid-2-yl}-1,4-dihydro-1,8-naphthyridine-3-carboxamide] | 268 to 288 °C
